System: NF-κ B activation
Test: Inhibitory activity of NF-κB activation, luciferase reporter assay under TNF-α stimulation in HepG2
Type: cell-based, human
Conditions: HepG2, TNF-α 40 ng/ml, 4 hours; for inhibition at 1 µg/mL / inhibition at 10 µg/mL: Homo sapiens, read-out: Inhibitory rate against NF-κB activation (%)
Experimental: Measurement of Inhibitory Activity of NF-κB activation
Using a transfection reagent (Effectene; QIAGEN), the human hepatoma cell strain HepG2 was transfected with a plasmid (pNF κ B-Luc Reporter Plasmid; […]) integrated with an oligonucleotide having five tandem copies of NF-κ B binding sequences([…]) on a upstream region of firefly luciferase gene(Luc) according to the QIAGEN's protocol, and the cells were incubated for 6 to 24 hours. After addition of TNF-α (40 ng/ml) in the presence or absence of a test compound, the cells were incubated for 4 hours, and intracellular luciferase activity was measured by using PicaGene LT (TOYO INK MFG Co., Ltd.) and a chemical luminescence measurement apparatus ([…]luor Plus; TECAN). The inhibitory ratio was measured as a ratio relative to the value of the luciferase activity in the absence of the test compound.

Row | SMILES | Inhibitory rate against NF-κB activation (%) (Drug concentration at 1 μg/mL) | Inhibitory rate against NF-κB activation (%) (Drug concentration at 10 μg/mL) | inhibition at 1 µg/mL (Drug concentration at 1 μg/mL) | inhibition at 10 µg/mL (Drug concentration at 10 μg/mL)
1 | Cc1ccc(O)c(C(=O)Nc2cc(Cl)cc(Cl)c2)c1 [compound 131] | 49.1% | 88.7% | – | –
2 | O=C(Nc1cc([N+](=O)[O-])cc([N+](=O)[O-])c1)c1cc(Br)ccc1O [compound 133] | 91.0% | 95.6% | – | –
3 | CC(C)(C)c1ccc(C(C)(C)C)c(NC(=O)c2cc(Cl)ccc2O)c1 [compound 134] | 89.1% | 96.3% | – | –
4 | COc1ccc(C(C)(C)C)cc1NC(=O)c1cc(Cl)ccc1O [compound 135, 5-chloro-N-{5-[(1,1-dimethyl)ethyl]-2-methoxyphenyl}-2-hydroxybenzamide] | – | – | 86.2% | 99.2%
5 | COc1ccc(C(C)(C)C)cc1NC(=O)c1cc(Cl)ccc1OC(C)=O [compound 136] | 91.0% | 99.4% | – | –
6 | Cc1cc(C)cc(NC(=O)c2cc(Br)ccc2O)c1 [compound 137] | 86.3% | 92.6% | – | –
7 | CC(C)(C)c1cc(NC(=O)c2cc(Cl)ccc2O)cc(C(C)(C)C)c1 [compound 138, N-{3,5-bis[(1,1-dimethyl)ethyl]phenyl}-5-chloro-2-hydroxybenzamide] | – | – | 89.6% | 98.1%
8 | CC(=O)Oc1ccc(Cl)cc1C(=O)Nc1cc(C(C)(C)C)cc(C(C)(C)C)c1 [compound 139] | 90.8% | 94.7% | – | –
9 | CC(C)(C)c1cc(NC(=O)c2cc(Br)ccc2O)cc(C(C)(C)C)c1 [compound 140] | 70.9% | 82.0% | – | –
10 | COc1ccc(-c2ccccc2)cc1NC(=O)c1cc(Cl)ccc1O [compound 141] | 82.4% | 97.9% | – | –
11 | COc1ccc(OC)c(NC(=O)c2cc(Br)ccc2O)c1 [compound 142] | 32.4% | 95.7% | – | –
12 | COc1cc(NC(=O)c2cc(Br)ccc2O)cc(OC)c1 [compound 143] | 38.3% | 96.8% | – | –
13 | COC(=O)c1cc(NC(=O)c2cc(Br)ccc2O)cc(C(=O)OC)c1 [compound 144, 5-bromo-2-hydroxy-N-[3,5-bis(methoxycarbonyl)phenyl]benzamide] | – | – | – | 56.4%
14 | CC(C)(C)c1cc(NC(=O)c2cc([N+](=O)[O-])ccc2O)cc(C(C)(C)C)c1 [compound 146] | 91.2% | 98.5% | – | –
15 | Cc1ccc(O)c(C(=O)Nc2cc(C(C)(C)C)cc(C(C)(C)C)c2)c1 [compound 147] | 38.9% | 91.0% | – | –
16 | COc1ccc(C(C)(C)C)cc1NC(=O)c1cc(C)ccc1O [compound 149] | 37.4% | 87.1% | – | –
17 | Cc1ccc(C(C)C)cc1NC(=O)c1cc(Cl)ccc1O [compound 151] | 85.8% | 98.2% | – | –
18 | CCOc1ccc(OCC)c(NC(=O)c2cc(Cl)ccc2O)c1 [compound 152] | 35.1% | 95.3% | – | –
19 | Cc1ccc(C)c(NC(=O)c2cc(Cl)ccc2O)c1 [compound 153] | 88.3% | 97.1% | – | –
20 | N#Cc1ccc(Cl)cc1NC(=O)c1cc(Cl)ccc1O [compound 154] | 83.0% | 93.3% | – | –
21 | CCN(CC)S(=O)(=O)c1ccc(OC)c(NC(=O)c2cc(Cl)ccc2O)c1 [compound 155] | 11.2% | 90.2% | – | –
22 | O=C(Nc1cc([N+](=O)[O-])ccc1Cl)c1cc(Cl)ccc1O [compound 156] | 93.8% | 95.7% | – | –
23 | COc1ccc(C(=O)Nc2ccccc2)cc1NC(=O)c1cc(Cl)ccc1O [compound 157] | 52.6% | 98.8% | – | –
24 | COc1ccc(OC)c(NC(=O)c2cc(Cl)ccc2O)c1 [compound 158] | 52.4% | 96.8% | – | –
25 | COc1ccc(C)c(NC(=O)c2cc(Cl)ccc2O)c1 [compound 160] | 69.6% | 96.5% | – | –
26 | CCCCOc1ccc(OCCCC)c(NC(=O)c2cc(Cl)ccc2O)c1 [compound 161] | 94.2% | 97.6% | – | –

Row | SMILES | Inhibitory rate against NF-κB activation (%) (Drug concentration at 1 μg/mL) | Inhibitory rate against NF-κB activation (%) (Drug concentration at 10 μg/mL) | inhibition at 1 µg/mL (Drug concentration at 1 μg/mL) | inhibition at 10 µg/mL (Drug concentration at 10 μg/mL)
27 | CC(C)CCOc1ccc(OCCC(C)C)c(NC(=O)c2cc(Cl)ccc2O)c1 [compound 162] | 93.8% | 97.9% | – | –
28 | CCC(C)(C)c1ccc(Oc2ccccc2)c(NC(=O)c2cc(Cl)ccc2O)c1 [compound 164] | 97.6% | 98.3% | – | –
29 | CCCCCCOc1ccc(S(C)(=O)=O)cc1NC(=O)c1cc(Cl)ccc1O [compound 165] | 95.9% | 99.4% | – | –
30 | Cc1ccc(C(=O)C(C)(C)C)cc1NC(=O)c1cc(Cl)ccc1O [compound 166] | 94.1% | 96.4% | – | –
31 | COc1ccc(-n2cccc2)c(NC(=O)c2cc(Cl)ccc2O)c1 [compound 167] | 76.4% | 98.7% | – | –
32 | Cc1ccc(S(=O)(=O)c2ccc(Cl)cc2NC(=O)c2cc(Cl)ccc2O)cc1 [compound 168] | 46.7% | 97.8% | – | –
33 | Cc1ccc(S(=O)(=O)c2ccc(Cl)c(NC(=O)c3cc(Cl)ccc3O)c2)cc1 [compound 169] | 31.6% | 95.9% | – | –
34 | COc1ccc(Oc2ccccc2)cc1NC(=O)c1cc(Cl)ccc1O [compound 171] | 90.6% | 98.1% | – | –
35 | Cc1ccc(-c2ccccc2)cc1NC(=O)c1cc(Cl)ccc1O [compound 172] | 93.7% | 96.4% | – | –
36 | COc1ccc(C(C)(C)c2ccccc2)cc1NC(=O)c1cc(Cl)ccc1O [compound 173] | 86.4% | 98.3% | – | –
37 | O=C(Nc1cc(N2CCOCC2)ccc1[N+](=O)[O-])c1cc(Cl)ccc1O [compound 174] | – | 89.6% | – | –
38 | CCCCc1ccc([N+](=O)[O-])cc1NC(=O)c1cc(Cl)ccc1O [compound 176] | 96.0% | 99.5% | – | –
39 | CCC(C)(C)c1ccc(O)c(NC(=O)c2cc(Cl)ccc2O)c1 [compound 177] | 87.8% | 99.4% | – | –
40 | COc1ccc(C)cc1NC(=O)c1cc(Cl)ccc1O [compound 178] | – | 89.7% | – | –
41 | O=C(Nc1cc(F)ccc1F)c1cc(Cl)ccc1O [compound 179] | 92.5% | 93.4% | – | –
42 | O=C(Nc1cc(F)cc(F)c1)c1cc(Cl)ccc1O [compound 180] | 90.7% | 93.7% | – | –
43 | O=C(Nc1cc(Cl)cc(Cl)c1)c1cc2ccccc2cc1O [compound 181] | – | 95.1% | – | –
44 | O=C(Nc1cc(Cl)cc(Cl)c1)c1c(O)ccc2ccccc12 [compound 182] | 85.3% | 90.2% | – | –
45 | COc1ccc(OC)c(NC(=O)c2cc3ccccc3cc2O)c1 [compound 183] | – | 86.8% | – | –
46 | CC(C)(C)c1cc(NC(=O)c2cc(Cl)cnc2O)cc(C(C)(C)C)c1 [compound 184] | 53.6% | 63.8% | – | –
47 | CC(C)(C)c1csc(NC(=O)c2cc(Br)ccc2O)n1 [compound 185, 5-Bromo-N-{4-[(1,1-dimethyl)ethyl]thiazol-2-yl}-2-hydroxybenzamide] | – | – | 88.4% | 95.2%
48 | CC(C)(C)c1nc(NC(=O)c2cc(Br)ccc2O)sc1Br [compound 186, 5-Bromo-N-{5-bromo-4-[(1,1-dimethyl)ethyl]thiazol-2-yl}-2-hydroxybenzamide] | – | – | 96.5% | 98.7%
49 | CC(C)(C)c1nc(NC(=O)c2cc(Cl)ccc2O)sc1C#N [compound 188, 5-Chloro-N-{5-cyano-4-[(1,1-dimethyl)ethyl]thiazol-2-yl}-2-hydroxybenzamide] | – | – | 92.6% | 92.4%
50 | CC(C)(C)c1nc(NC(=O)c2cc(Br)ccc2O)sc1C#N [compound 189] | 20.0% | 93.8% | – | –
51 | Cc1cnc(NC(=O)c2cc(Br)ccc2O)s1 [compound 190] | – | 69.7% | – | –
52 | Cc1nc(NC(=O)c2cc(Br)ccc2O)sc1C [compound 191] | – | 67.2% | – | –

From patent US20080234233A1, “MEDICAMENT FOR TREATMENT OF NEURODEGENERATIVE DISEASES” (INSTITUTE OF MEDICINAL MOLECULAR DESIGN INC., priority 2002, published 2008)
